Laboratory results: patent publication US9000027B2, “Chk1 suppresses a caspase-2 apoptotic response to DNA damage that bypasses p53, bcl-2 and caspase-3” (Dana-Farber Cancer Institute, Inc., priority 2008, dated 2015)
“Also recorded” adds a separate entry of the source.

Columns and labels:
p53 mutant embryos = test: Live acridine orange (AO) assay of IR-induced cell death in inhibitor-treated p53 mutant embryos; assay type: in vivo, zebrafish
Text: Chk1 inhibitors hold considerable promise in cancer therapy, as they are expected to synergize with genotoxic agents to kill tumor cells lacking functional p53, without affecting normal cells (Kawabe, 2004; Zhou and Bartek, 2004). […] Gö6976 has not been tested in vivo in a vertebrate model system. We therefore evaluated it as well as specific Chk2 and ATM inhibitors in the zebrafish system. Drug toxicity was monitored by scoring the AO reactivity of inhibitor-treated, but non-irradiated, p53^+/+ embryos (left column in FIG. 8A). Unless otherwise indicated, the inhibitors were applied at 18 hpf (that is, immediately before IR) for a total of 6 hours.
Live zebrafish embryos were dechorionated in pronase (2.0 mg/mL in egg water) for 3 to 5 min and rinsed five times in egg water at 18 hpf. Embryos were then γ-irradiated (12.5 Gy) using a ^137Cs-irradiator (Gammacell 1000) at 18 hr post-fertilization (hpf). At 24 hpf, embryos were incubated in […] Acridine Orange (AO; Sigma A-6014) in egg water for 30 min at 28.5° C., followed by 3 quick rinses and three 10-min washes in egg water. 5-10 AO-treated embryos were anesthetized in Tricaine ([…]; 3-amino benzoic acid ethylester from Sigma, A-5040) and mounted laterally on a glass slide in warm 0.5% agarose in egg water by streaking a thin layer of the warm agarose across the surface of the slide, and gently pulling the embryos across the agar with a transfer pipette. Lateral images of each zebrafish were acquired on a Zeiss Axioplan2 fluorescence microscope (5× lens), using OpenLab software and a Hammamatsu C4742-95 digital camera. All images were then converted to 8-bit grayscale in NIH ImageJ using the Image>Type>8-bit command. Next, we cropped the images using the Polyonal Selection tool and the Image>Crop functions to include only the trunk of the animal from the head until the beginning of the yolk tube (MO screen; FIG. 1B) or along the entire spinal cord (epistasis analyses; FIGS. 6A & 6D). The area outside of the selected region of interest was cleared using the Edit>Clear Outside command to create a distinct boundary around the area of interest (this is important as it allows the area of interest to be precisely selected after applying the threshold). Next, we split the acquired images into features of interest and background using the Image>Adjust>Threshold function in NIH ImageJ. We then set the maximum threshold of each image to 255 (the lower slide bar in the Threshold window), and adjusted the minimum threshold to the optimized threshold (see below). The threshold was applied using the Black & White display option, with the following Lut options applied; Thresholded pixels to foreground color; Remaining pixels to background color and Black foreground, white background. […] Next, we re-selected the region of interest on the thresholded image, following the bounded image carefully, and analyzed the pixels of the image using the Analyze>Analyze Particles function. The Minimum Size was set to 1px, the Maximum Size was set to the maximum value of 999999 and the Masks option was selected under the Show pull-down menu. The following extended options were also selected: Display Results; Clear Results; Summarize, Size Distribution and Record Starts. If selected by default, the Exclude on Edges option was deselected. The Area Fraction for each image selection was taken from the Summary window, which is the percentage of pixels in the selection that were black. To ensure valid comparisons of the AO labeling results across all experiments, we quantitatively determined a baseline Area Fraction across a large set of simultaneously irradiated and processed p53^+/+ embryos. […] This analysis yielded a mean value for the total labeled surface area of ˜20% (see FIG. 1B, light gray bar). We included at least 6 p53^+/+ non-injected control embryos in all subsequent AO-labeling experiments. […]

[1] = system: p53^e7/e7;chk1^MO cells grafted into p53^e7/e7 hosts; test: Blastula-cell transplantation (genetic chimeras), TUNEL after IR; assay type: in vivo, zebrafish; details: 12.5 Gy, n=102
Text: To determine whether the Chk1-antagonized pathway functions cell autonomously or non-cell autonomously, we generated genetic chimeras (see cell transplantation procedure in FIG. 3D and assay validation in FIG. 14). While p53^e7/e7;chk1^MO cells grafted into p53^e7/e7 hosts often stained TUNEL-positive after IR (39%, n=102), neighboring host cells were virtually never seen that stained TUNEL-positive (FIG. 3E, upper panels). In the reciprocal experiment, p53^e7/e7 cells transplanted into p53^e7/e7;chk1^MO hosts remained TUNEL-negative within an otherwise TUNEL-positive environment (FIG. 3E, lower panels). Therefore, IR-induced TUNEL reactivity of transplanted cells strictly depends on Chk1 dosage, occurs irrespective of the cellular environment, and has very little, if any, influence on neighboring cells. The Chk1-suppressed apoptotic pathway thus functions in a cell-autonomous manner.
Zebrafish embryos were fixed in 4% paraformaldehyde (PFA) overnight at 4° C. and subsequently stored in methanol at −20° C. for at least 2 hr. After rehydration at room temperature in PBST (1×PBS, 0.1% Tween-20), embryos were treated with proteinase K (10 μg/mL) in PBS for 15 min, followed by a 20-min postfix in 4% PFA at room temperature. […] Tagged DNA was detected with sheep anti-digoxigenin-fluorescein or sheep anti-digoxigenin-rhodamine conjugated Fab fragments. […]

Compound | Gö6976-treated p53 mutants showing a marked IR-response recovery (p53 mutant embryos; 1 μM, 12.5 Gy IR at 18 hpf, n=210) [%] | radiosensitization of p53 mutants (IR-induced AO labeling) (p53 mutant embryos; 12.5 Gy at 18 hpf, Gö6976 1 μM, KU55933 10 μM, Chk2 Inhibitor II 10 μM, 6 hr) | exposure immediately after IR sufficient to phenocopy chk1 MO knockdown (p53 mutant embryos; p53 mutant embryos) [h] | AO staining response versus p53 mutant response (p53 mutant embryos; p53 mutants treated with Gö6976 for 6 hours, IR) [fold] | grafted cells staining TUNEL-positive after IR [1] [%]
Cn1c2ccccc2c2c3c(c4c5ccccc5n(CCC#N)c4c21)CNC3=O [Gö6976] | 95 | restored a complete response to IR; also recorded: restored IR-induced cell death with complete penetrance | 1.5 | ~500 | –
chk1 MO: morpholino against zebrafish chk1 atg/5'UTR, aggcacagccattatgcaatcttcg (SEQ ID NO: 11) (AGGCACAGCCATTATGCAATCTTCG; all phosphorodiamidate morpholino (PMO)) | – | – | – | – | 39
